From ChEMBL document CHEMBL1152295, “Novel 3,3-disubstituted pyrrolidines as selective triple serotonin/norepinephrine/dopamine reuptake inhibitors” (Bioorg Med Chem Lett, 2008)

Assays:
in vitro [1] = details: human
in vitro [2] = details: human; remark: listed apart in the source
in vitro [3] = details: human, liver microsomes
Caco-2 [4] = details: human, caco-2, 10 µM
Caco-2 [5] = details: human, caco-2, 10 µM; remark: listed apart in the source

SMILES | Papp B→A at 10 µM (in vitro [1]; Caco-2, Papp) | Papp A→B at 10 µM (in vitro [2]; Caco-2, Papp) | microsomal CLint (in vitro [3]; Stability) | also measured
c1ccc(CC2(c3ccc4[nH]ccc4c3)CCNC2)nc1 (stereo not drawn) | 18 ×10⁻⁶ cm/s | 3.2 ×10⁻⁶ cm/s | 86 µL/min/mg | –
NC(=O)c1cc2cc(C3(Cc4ccccc4)CCNC3)ccc2[nH]1 (stereo not drawn) | 17 ×10⁻⁶ cm/s | 0.6 ×10⁻⁶ cm/s | 1.4 µL/min/mg | –
Cn1ccc2cc(C3(Cc4ccccc4)CCNC3)ccc21 (stereo not drawn) | – | – | 106 µL/min/mg | –
CN(C)C(=O)c1cc2cc(C3(Cc4ccccc4)CCNC3)ccc2[nH]1 (stereo not drawn) | 24 ×10⁻⁶ cm/s | 4 ×10⁻⁶ cm/s | 12.8 µL/min/mg | –
CCCC1(c2ccc3[nH]ccc3c2)CCNC1 (stereo not drawn) | – | – | – | Papp B→A at 10 µM (in vitro [1]; Caco-2): 24 ×10⁻⁶ cm/s; Papp A→B at 10 µM (in vitro [2]; Caco-2): 16.5 ×10⁻⁶ cm/s; microsomal CLint (in vitro [3]): 2.3 µL/min/mg
CCCCC1(c2ccc3[nH]ccc3c2)CCNC1 (stereo not drawn) | 19 ×10⁻⁶ cm/s | 9.4 ×10⁻⁶ cm/s | 38 µL/min/mg | –
c1ccc(CC2(c3ccc4sccc4c3)CCNC2)cc1 (stereo not drawn) | – | – | 198 µL/min/mg | –
CCOC(=O)c1cc2cc(C3(Cc4ccccc4)CCNC3)ccc2[nH]1 (stereo not drawn) | 3.4 ×10⁻⁶ cm/s | 3.5 ×10⁻⁶ cm/s | 47.8 µL/min/mg | –
Fc1ccc(CC2(c3ccc4[nH]ccc4c3)CCNC2)cc1 (stereo not drawn) | – | – | 84 µL/min/mg | –
COc1cccc(CC2(c3ccc4[nH]ccc4c3)CCNC2)c1 (stereo not drawn) | – | – | 77 µL/min/mg | –
c1ccc(CC2(c3ccc4[nH]ncc4c3)CCNC2)cc1 (stereo not drawn) | 22 ×10⁻⁶ cm/s | 10 ×10⁻⁶ cm/s | 28 µL/min/mg | –
c1ccc(CC2(c3ccc4[nH]ccc4c3)CCNC2)cc1 (stereo in doubt; 16) [5-(3-BENZYLPYRROLIDIN-3-YL)-1H-INDOLE (STRUCTURAL MIX)] | – | – | – | Papp (Caco-2 [4]): 17 ×10⁻⁶ cm/s; Papp (Caco-2 [5]): 14 ×10⁻⁶ cm/s
c1ccc(CC2(c3ccc4[nH]ccc4c3)CCNC2)cc1 (stereo in doubt; (+)-16) [5-(3-BENZYLPYRROLIDIN-3-YL)-1H-INDOLE (STRUCTURAL MIX)] | 9.9 ×10⁻⁶ cm/s | 21 ×10⁻⁶ cm/s | 154 µL/min/mg | –
Clc1ccc([C@]23CNC[C@H]2C3)cc1Cl [AMITIFADINE] | – | – | – | Papp B→A at 10 µM (in vitro [1]; Caco-2): 2.1 ×10⁻⁶ cm/s; Papp A→B at 10 µM (in vitro [2]; Caco-2): 2.9 ×10⁻⁶ cm/s; microsomal CLint (in vitro [3]): 47 µL/min/mg
